Data from US12421191B2, “3-hydroxyoxindole derivatives as CRHR2 antagonist” (RaQualia Pharma Inc., priority 2020, dated 2025).

Molecular target: T1, human CRHR2-alpha (Homo sapiens, UniProt Q13324)
T1 construct: host or cells: CHO-K1
T1 sequence (Q13324 1-411): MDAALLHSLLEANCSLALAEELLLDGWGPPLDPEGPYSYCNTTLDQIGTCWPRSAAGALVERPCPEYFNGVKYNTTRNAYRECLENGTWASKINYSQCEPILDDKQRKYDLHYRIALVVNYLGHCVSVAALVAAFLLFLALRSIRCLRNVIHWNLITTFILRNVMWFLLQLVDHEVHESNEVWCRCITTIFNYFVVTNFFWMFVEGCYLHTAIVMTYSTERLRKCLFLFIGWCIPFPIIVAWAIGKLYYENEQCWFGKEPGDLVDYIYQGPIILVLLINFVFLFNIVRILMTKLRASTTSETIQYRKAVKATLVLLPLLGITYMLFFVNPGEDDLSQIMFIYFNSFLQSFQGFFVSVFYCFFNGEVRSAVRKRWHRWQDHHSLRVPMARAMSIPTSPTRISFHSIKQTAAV
Assay: cAMP functional assay for human CRHR2 (LANCE Ultra TR-FRET)
Assay type: cell-based
Settings: inhibition of cAMP production in CHO-K1 cells stably expressing human CRHR2-alpha, EC90 of human urocortin2 as agonist; read-out: IC50 against CRHR2
Experimental: cAMP functional assay for human CRHR2 The ability of the compounds of this invention to inhibit either CRHR2 is assessed by 3′,5′-cyclic adenosine monophosphate (cAMP) production in cells using the LANCE Ultra cAMP assay kit (ParkinElmer), which are designed based on the homogeneous time-resolved fluorescence resonance energy transfer (TR-FRET) immunoassay.
CHO-K1 (Chinese hamster ovary) cells stably expressing human CRHR2-alpha (DiscoveRX, Cat. 95-0048C2) are grown in HAM's F12 media supplemented with 10% fetal bovine serum (FBS), 100 units/mL penicillin G, 100 microg/mL hygromycin and 0.5 microg/mL geneticin at 37° C. in 5% CO2 humidified incubator to 80% confluence. After 7 hours starvation treatment in culture media containing 0.1% FBS, the cells are washed with Hanks balanced salt solution (HBSS) and cryopreserved.
For cAMP assay, frozen cells are thawed and washed with HBSS, followed by resuspending cells in assay buffer (HBSS containing 0.1% bovine serum albumin, 0.5 mM isobutylmethylxanthine and 5 mM Hepes, pH 7.4) at the appropriate concentration for the assay. The cell suspensions are plated on 384-well microplates (Greiner Bio-One) at a density of 4,000 cells per well. After preincubating the cells with various concentrations of the compounds for 30 min at 25° C., an assay buffer containing EC90 concentration of agonist is added and the cells are incubated for 30 min at 25° C. Human urocortin2 (Peptide Institute) is used as agonists for CRHR2. For the termination of assay, europium-labeled cAMP tracer and ULight (registered trademark) dye labeled cAMP antibodies, both prepared with Lance-Ultra cAMP detection reagent (PerkinElmer) are added in the plate and incubate for 60 min at 25° C. After incubation, TR-FRET signal is detected by EnVision plate reader (PerkinElmer). The IC50 values for compounds are calculated from dose-response curves by fitting the percent inhibition using XLfit (ID Business Solutions).

Structure (SMILES)	IC50
O=C(N[C@H]1CC[C@H](CN2C(=O)C(O)(c3ccc(F)cn3)c3ccc(F)cc32)CC1)c1cc(Cl)cnc1C(F)F (some centres unmarked) [Example 79, 5-chloro-2-(difluoromethyl)-N-((1r,4r)-4-((6-fluoro-3-(5-fluoropyridin-2-yl)-3-hydroxy-2-oxoindolin-1-yl)methyl)cyclohexyl) nicotinamide]	< 200 nM
Cc1ncc(Cl)cc1C(=O)N[C@H]1CC[C@H](CN2C(=O)C(O)(c3cc(F)cc(F)c3F)c3ccccc32)CC1 (some centres unmarked) [Example 132, 5-chloro-N-((1r,4r)-4-((3-hydroxy-2-oxo-3-(2,3,5-trifluorophenyl)indolin-1-yl)methyl)cyclohexyl)-2-methylnicotinamide]	< 200 nM
N#Cc1ccc(F)c(C2(O)C(=O)N(C[C@H]3CC[C@H](NC(=O)c4cc(Cl)cnc4C(F)F)CC3)c3ccccc32)c1 (some centres unmarked) [Example 59, 5-chloro-N-((1r,4r)-4-((3-(5-cyano-2-fluorophenyl)-3-hydroxy-2-oxoindolin-1-yl)methyl)cyclohexyl)-2-(difluoromethyl)nicotinamide]	< 200 nM
O=C(N[C@H]1CC[C@H](CN2C(=O)C(O)(c3ccccc3F)c3c(F)cc(F)cc32)CC1)c1cc(Cl)cnc1C(F)F (some centres unmarked) [Example 177, 5-chloro-N-((1r,4r)-4-((4,6-difluoro-3-(2-fluorophenyl)-3-hydroxy-2-oxoindolin-1-yl)methyl)cyclohexyl)-2-(difluoromethyl)nicotinamide]	< 200 nM
COc1cc(C2(O)C(=O)N(C[C@H]3CC[C@H](NC(=O)c4cc(Cl)cnc4C(F)F)CC3)c3ccccc32)c(F)cn1 (some centres unmarked) [Example 27, 5-chloro-2-(difluoromethyl)-N-((1r,4r)-4-((3-(5-fluoro-2-methoxypyridin-4-yl)-3-hydroxy-2-oxoindolin-1-yl)methyl)cyclohexyl) nicotinamide]	< 200 nM
O=C(N[C@H]1CC[C@H](CN2C(=O)C(O)(c3ccncc3F)c3ccc(F)cc32)CC1)c1cc(Cl)cnc1C(F)F (some centres unmarked) [Example 85, 5-chloro-2-(difluoromethyl)-N-((1r,4r)-4-((6-fluoro-3-(3-fluoropyridin-4-yl)-3-hydroxy-2-oxoindolin-1-yl)methyl)cyclohexyl) nicotinamide]	< 200 nM
Cc1ccc(C2(O)C(=O)N(C[C@H]3CC[C@H](NC(=O)c4cc(Cl)cnc4C(F)F)CC3)c3ccccc32)cc1 (some centres unmarked) [Example 56, 5-chloro-2-(difluoromethyl)-N-((1r,4r)-4-((3-hydroxy-2-oxo-3-(p-tolyl)indolin-1-yl)methyl)cyclohexyl) nicotinamide]	< 200 nM
O=C(N[C@H]1CC[C@H](CN2C(=O)C(O)(c3cccc(Cl)c3F)c3c(F)cccc32)CC1)c1cc(Cl)cnc1C(F)F (some centres unmarked) [Example 190, 5-chloro-N-((1r,4r)-4-((3-(3-chloro-2-fluorophenyl)-4-fluoro-3-hydroxy-2-oxoindolin-1-yl)methyl)cyclohexyl)-2-(difluoromethyl)nicotinamide]	< 200 nM
O=C(N[C@H]1CC[C@H](CN2C(=O)C(O)(c3cccc(F)c3)c3ccccc32)CC1)c1cc(Cl)cnc1C(F)F (some centres unmarked) [Example 20, 5-chloro-2-(difluoromethyl)-N-((1r,4r)-4-((3-(3-fluorophenyl)-3-hydroxy-2-oxoindolin-1-yl)methyl)cyclohexyl) nicotinamide]	< 200 nM
O=C(N[C@H]1CC[C@H](CN2C(=O)C(O)(c3ccc(Cl)cn3)c3c(F)cccc32)CC1)c1cc(Cl)cnc1C(F)F (some centres unmarked) [Example 140, 5-chloro-N-((1r,4r)-4-((3-(5-chloropyridin-2-yl)-4-fluoro-3-hydroxy-2-oxoindolin-1-yl)methyl)cyclohexyl)-2-(difluoromethyl)nicotinamide]	< 200 nM
O=C(N[C@H]1CC[C@H](CN2C(=O)C(O)(c3cccc(F)c3F)c3ccccc32)CC1)c1cc(Cl)cnc1C(F)(F)F (some centres unmarked) [Example 113, 5-chloro-N-((1r,4r)-4-((3-(2,3-difluorophenyl)-3-hydroxy-2-oxoindolin-1-yl)methyl)cyclohexyl)-2-(trifluoromethyl)nicotinamide]	< 200 nM
COc1cccc(C2(O)C(=O)N(C[C@H]3CC[C@H](NC(=O)c4cc(Cl)cnc4C(F)F)CC3)c3ccccc32)c1 (some centres unmarked) [Example 47, 5-chloro-2-(difluoromethyl)-N-((1r,4r)-4-((3-hydroxy-3-(3-methoxyphenyl)-2-oxoindolin-1-yl)methyl)cyclohexyl) nicotinamide]	< 200 nM
COc1cccc2c1C(O)(c1cccc(F)c1F)C(=O)N2C[C@H]1CC[C@H](NC(=O)c2cc(Cl)cnc2C(F)F)CC1 (some centres unmarked) [Example 158, 5-chloro-2-(difluoromethyl)-N-((1r,4r)-4-((3-(2,3-difluorophenyl)-3-hydroxy-4-methoxy-2-oxoindolin-1-yl)methyl)cyclohexyl) nicotinamide]	< 200 nM
O=C(N[C@H]1CC[C@H](CN2C(=O)C(O)(c3cc(F)ccc3F)c3ccc(F)cc32)CC1)c1cc(Cl)cnc1C(F)F (some centres unmarked) [Example 118, 5-chloro-2-(difluoromethyl)-N-((1r,4r)-4-((3-(2,5-difluorophenyl)-6-fluoro-3-hydroxy-2-oxoindolin-1-yl)methyl)cyclohexyl)nicotinamide]	< 200 nM
O=C(N[C@H]1CC[C@H](CN2C(=O)C(O)(c3cc(F)cc(F)c3F)c3ccccc32)CC1)c1cc(Cl)cnc1C(F)F (some centres unmarked) [Example 133, 5-chloro-2-(difluoromethyl)-N-((1r,4r)-4-((3-hydroxy-2-oxo-3-(2,3,5-trifluorophenyl)indolin-1-yl)methyl)cyclohexyl) nicotinamide]	< 200 nM
O=C(N[C@H]1CC[C@H](CN2C(=O)C(O)(c3cccc(F)c3F)c3cc(F)ccc32)CC1)c1cc(Cl)cnc1C(F)F (some centres unmarked) [Example 123, 5-chloro-2-(difluoromethyl)-N-((1r,4r)-4-((3-(2,3-difluorophenyl)-5-fluoro-3-hydroxy-2-oxoindolin-1-yl)methyl)cyclohexyl) nicotinamide]	< 200 nM
Cc1ncc(Cl)cc1C(=O)N[C@H]1CC[C@H](CN2C(=O)C(O)(c3cccc(F)c3F)c3ccc(F)cc32)CC1 (some centres unmarked) [Example 143, 5-chloro-N-((1r,4r)-4-((3-(2,3-difluorophenyl)-6-fluoro-3-hydroxy-2-oxoindolin-1-yl)methyl)cyclohexyl)-2-methylnicotinamide]	< 200 nM
COc1ccc(F)c(C2(O)C(=O)N(C[C@H]3CC[C@H](NC(=O)c4cc(Cl)cnc4C(F)F)CC3)c3ccc(F)cc32)c1 (some centres unmarked) [Example 168, 5-chloro-2-(difluoromethyl)-N-((1r,4r)-4-((5-fluoro-3-(2-fluoro-5-methoxyphenyl)-3-hydroxy-2-oxoindolin-1-yl)methyl)cyclohexyl) nicotinamide]	< 200 nM
O=C(N[C@H]1CC[C@H](CN2C(=O)C(O)(c3ccncc3F)c3ccccc32)CC1)c1cc(Cl)cnc1C(F)F (some centres unmarked) [Example 10, 5-chloro-2-(difluoromethyl)-N-((1r,4r)-4-((3-(3-fluoropyridin-4-yl)-3-hydroxy-2-oxoindolin-1-yl)methyl)cyclohexyl) nicotinamide]	< 200 nM
O=C(N[C@H]1CC[C@H](CN2C(=O)C(O)(c3ccc(F)cc3)c3ccccc32)CC1)c1cc(Cl)cnc1C(F)F (some centres unmarked) [Example 17, 5-chloro-2-(difluoromethyl)-N-((1r,4r)-4-((3-(4-fluorophenyl)-3-hydroxy-2-oxoindolin-1-yl)methyl)cyclohexyl) nicotinamide]	< 200 nM
COc1ccc(C2(O)C(=O)N(C[C@H]3CC[C@H](NC(=O)c4cc(Cl)cnc4C)CC3)c3ccccc32)c(F)c1F (some centres unmarked) [Example 139, 5-chloro-N-((1r,4r)-4-((3-(2,3-difluoro-4-methoxyphenyl)-3-hydroxy-2-oxoindolin-1-yl)methyl)cyclohexyl)-2-methylnicotinamide]	< 200 nM
COc1cccc(C2(O)C(=O)N(C[C@H]3CC[C@H](NC(=O)c4cc(Cl)cnc4C(F)F)CC3)c3ccccc32)c1F (some centres unmarked) [Example 66, 5-chloro-2-(difluoromethyl)-N-((1r,4r)-4-((3-(2-fluoro-3-methoxyphenyl)-3-hydroxy-2-oxoindolin-1-yl)methyl)cyclohexyl) nicotinamide]	< 200 nM
O=C(N[C@H]1CC[C@H](CN2C(=O)C(O)(c3cccc(F)c3F)c3ccc(F)cc32)CC1)c1cc(Cl)cnc1C(F)F (some centres unmarked) [Example 116, 5-chloro-2-(difluoromethyl)-N-((1r,4r)-4-((3-(2,3-difluorophenyl)-6-fluoro-3-hydroxy-2-oxoindolin-1-yl)methyl)cyclohexyl) nicotinamide]	< 200 nM
